These results are taken from US20240122930A1, “INTEGRIN INHIBITORS AND USES THEREOF IN COMBINATION WITH OTHER AGENTS” (Pliant Therapeutics, Inc., priority 2022, published 2024).

The test system of experiment [1] is lung Col1a1 expression. Put plainly: Precision cut lung slices, chronic bleomycin exposure, Col1a1 expression. In kind it is cell-based, mice (C57BL/6). The settings on record: chronic bleomycin PCLS, 7 days culture. As to the method:
Mice (C57BL/6) were administered 3 U/kg of bleomycin (Teva Pharmaceuticals; North Wales, PA) on Day 0 and 1 U/kg of bleomycin on days 14, 28, 42 and 56 via oropharyngeal aspiration while under anesthesia. At day 70, 14 days after the final bleomycin insult, precision cut lung slices were obtained. […] The lobes were then subjected to precision slicing to obtain samples for culture using a microtome (Compresstome VF-300-OZ, Precisionary; Greenville, NC). Individual slices were distributed in a multiwell culture plate and cultured for 7 days under control (DMSO) and test compound conditions. The viability of the slices over the course of culturing was confirmed by WST-1 assay of mitochondrial activity. […] Compound 5; and the small molecule ALK5 inhibitor. […] Compound 5 was run at approximate IC50 for inhibition of TGF-beta activation by αVβ6.

Experiment [2] deals with patients with idiopathic pulmonary fibrosis (IPF). Put plainly: Phase 2a randomized, double-blind, placebo-controlled trial in IPF. The note with it: FIG. 36. In kind it is in vivo, human.

As to `COCCN(CCCCc1ccc2c(n1)NCCC2)CC[C@H](Nc1ncnc2ccccc12)C(=O)O` [Compound 5, (S)-4-((2-methoxyethyl) (4-(5,6,7,8-tetrahydro-1,8-naphthyridin-2-yl)butyl)amino)-2-(quinazolin-4-ylamino) butanoic acid], the “lung Col1a1 expression, normalized to DMSO control slices” value in experiment [1] is “decreased lung Col1a1 expression substantially”. In addition, in experiment [2], the “patients with FVC improvement at week 12 who maintained improvement in FVC at week 24” value is given as “About 89%”.
